{
  "source": "patent US20130266557A1",
  "about": "“METHODS FOR TREATMENT OF A SARCOMA USING AN EPIMETABOLIC SHIFTER (COENZYME Q10)” (priority 2009, published 2013)",
  "key": {"[1]": {"test_system": "mitochondrial preparation of NICES0808 sample", "experiment": "2-D gel analysis of mitochondrial preparation", "assay_type": "cell-based, human", "settings": "direction not given", "procedure": "NCIES0808 cells were treated with Q10 separately in larger volumes for isolation of sufficient mitochondria for proteomic analysis. Cells were treated with media, 50 uM Q10 or 100 uM Q10 for 0, 3, 6, 24 and 48 hours in T175 flasks. Two flasks were grown for each condition and cells from the two were pooled during harvesting. After the required treatment time, cells were trypsinized and washed twice in ice cold TBS. Pelleted cells were snap frozen in liquid nitrogen and frozen at −80° C. until mitochondria were isolated. Mitochondria were isolated using manufacturers instructions available with the MitoProfile Mitosciences Isolation Kit for Cultured Cells (Mitosciences Inc, Eugene, Oreg.).\nBefore isoelectric focusing (IEF), samples were solubilized in 40 mM Tris, 7 M urea, 2 M thiourea, and 1% C7 zwitterionic detergent, reduced with tributylphosphine, and alkylated with 10 mM acrylamide for 90 min at room temperature. After the sample was run through a 10-kDa cutoff Amicon Ultra device with at least 3 volumes of the resuspension buffer, consisting of 7 M urea, 2 M thiourea, and 2% CHAPS to reduce the conductivity of the sample. One hundred micrograms of protein were subjected to IEF on 11-cm pH 3 to 10, pH 4 to 7 or pH 6 to 11 immobilized pH gradient strips (GE, Amersham, USA) to 100,000 volts hour. After IEF, immobilized pH gradient strips were equilibrated in 6 M urea, 2% SDS, 50 mM Tris-acetate buffer, pH 7.0, and 0.01% bromphenol blue and subjected to SDS-polyacrylamide gel electrophoresis on 8 to 16% Tris-HCl Precast Gel, 1 mm (Bio-Rad, USA). The gels were run in duplicate. They were fixed, stained in SYPRO Ruby, 80 mL/gel (Invitrogen, USA) and imaged on Fuji FLA-5100 laser scanner.\nA mitochondrial preparation of NICES0808 sample was also analyzed for proteins and below, in Table 8, is the list of proteins the amount of which was modulated following treatment with CoQ10."}, "ZR-75": {"test_system": "ZR-75", "experiment": "Induction of early apoptosis by CoQ10", "assay_type": "cell-based", "procedure": "(§1) The effects of Coenzyme Q10 treatment on a variety of oncogenic and normal cell lines were examined and compared. The sensitivity of cells to Coenzyme Q10 was assessed by monitoring induction of apoptosis. CoQ10 treatment of cells was carried out as described in detail below in the Materials and Methods. Induction of apoptosis was assessed in the treated cells by monitoring indicators of early apoptosis (e.g., Bcl-2 expression, caspase activation and by using annexin V assays) as described below. From these studies, the minimal CoQ10 dosage, e.g., concentration of CoQ10 and time of treatment, required to induce apoptosis in the panel of cell lines was determined.\n(§2) Cells were cultured in T-75 flasks with relevant medium supplemented with 10% Fetal Bovine Serum (FBS), 1% PSA (penicillin, streptomycin, amphotericin B) (Invitrogen and Cellgro) in a 37° C. incubator with 5% CO2 levels until 70-80% confluence was reached. To harvest cells for treatment, flasks were primed with 1 mL Trypsin, aspirated, trypsinized with an additional 3 mL, and incubated at 37° C. for 3-5 minutes. Cells were then neutralized with an equal volume of media and the subsequent solution was centrifuged at […] for 8 minutes. The supernatant was aspirated and the cells were resuspended with 8.5 ml of media. A mixture of 500 ul of the resuspension and 9.5 ml of […] was read twice by a coulter counter and the appropriate number of cells to be seeded into each dish was determined. Control and concentration ranging from 0-200 μM groups were examined in triplicate. From a 500 μM CoQ-10 stock solution, serial dilutions were performed to achieve desired experimental concentration in appropriate dishes. Dishes were incubated in a 37° C. incubator with 5% CO2 levels for 0-72 hours depending on cell type and experimental protocol.\n(§3) The volume of sample to load per well was determined using the raw mean concentration of protein obtained from the BCA protein assay. Approximately 30-60 μg of protein were loaded for each treatment time point. Proteins were run in triplicate on 12% Tris-HCl ready gels (Bio-Rad) or hand cast gels in 1× running buffer at 85 and 100 volts. Proteins were then transferred onto nitrocellulose paper for an hour at 100 volts, and blocked for another hour in a 5% milk solution. Membranes were placed in primary antibody (1 uL Ab:1000 uL TBST) (Cell Signaling) overnight at […] The following day, membranes were washed three times for ten minutes each with Tris-Buffered Saline Tween-20 (TBST), and secondary antibody (anti-rabbit; 1 uL Ab: 1000 uL TBST) was applied for an hour at […] Membranes were washed again three times for ten minutes with TBST and chemoluminescence using Pico or Femto substrate was completed (Pierce). Membranes were then developed at time intervals that produced the best visual results. After developing, membranes were kept in TBST at […] until Actin levels could be measured.\n(§4) Cells were washed twice in PBS10× and resuspended in Binding Buffer (0.1 M HEPES, pH 7.4; 1.4 M NaCl; 25 mM CaCl2). Samples of 100 μl were added to a culture tube with 5 μl of annexin-PE dye or […]. The cells were mixed and incubated without light at room temperature for 15 minutes. After which, 400 μl of 1×Binding Buffer was added to each sample and they were subjected to analysis by flow cytometry."}, "Melanoma (Skmel 28)": {"test_system": "Melanoma (Skmel 28)", "experiment": "Induction of early apoptosis by CoQ10", "assay_type": "cell-based", "procedure": "as §1, §2, §3, §4"}, "Melanoma (Skmel 2)": {"test_system": "Melanoma (Skmel 2)", "experiment": "Induction of early apoptosis by CoQ10", "assay_type": "cell-based", "procedure": "as §1, §2, §3, §4"}, "Melanocytes (Hema, LP)": {"test_system": "Melanocytes (Hema, LP)", "experiment": "Induction of early apoptosis by CoQ10", "assay_type": "cell-based", "settings": "SKIN: Melanocytes (Hema, LP)", "procedure": "as §1, §2, §3, §4"}, "MDA MB 468": {"test_system": "MDA MB 468", "experiment": "Induction of early apoptosis by CoQ10", "assay_type": "cell-based", "procedure": "as §1, §2, §3, §4"}, "SkBr-3": {"test_system": "SkBr-3", "experiment": "Induction of early apoptosis by CoQ10", "assay_type": "cell-based", "procedure": "as §1, §2, §3, §4"}, "[2]": {"test_system": "Aortic smooth muscle (HASMC)", "experiment": "Induction of early apoptosis by CoQ10", "assay_type": "cell-based", "settings": "Heart: Aortic smooth muscle (HASMC)", "procedure": "as §1, §2, §3, §4"}, "HepG2": {"test_system": "HepG2", "experiment": "Induction of early apoptosis by CoQ10", "assay_type": "cell-based", "procedure": "as §1, §2, §3, §4"}, "[3]": {"test_system": "SCC, Squamous cell carcinoma", "experiment": "Induction of early apoptosis by CoQ10", "assay_type": "cell-based", "procedure": "as §1, §2, §3, §4"}},
  "data": [
    {"substance": "Coenzyme Q10 [CoQ10]", "values": [
      {"measurement": "Proteins Modulated in NCIES0808 cells treated with CoQ10 (value = protein)", "setting": "[1]; gel spot 37", "value": "eukaryotic translation elongation factor 1 beta 2"},
      {"measurement": "Proteins Modulated in NCIES0808 cells treated with CoQ10 (value = protein)", "setting": "[1]; gel spot 108", "value": "retinoblastoma binding protein 4 isoform A"},
      {"measurement": "Proteins Modulated in NCIES0808 cells treated with CoQ10 (value = protein)", "setting": "[1]; gel spot 172", "value": "cytoplasmic dynein IC-2"},
      {"measurement": "Proteins Modulated in NCIES0808 cells treated with CoQ10 (value = protein)", "setting": "[1]; gel spot 227", "value": "chaperonin containing TCP1, subunit 3"},
      {"measurement": "Proteins Modulated in NCIES0808 cells treated with CoQ10 (value = protein)", "setting": "[1]; gel spot 1000", "value": "TAR DNA binding protein"},
      {"measurement": "Indication of Early apoptosis (Bcl-2, annexin V, or caspase activation)", "setting": "ZR-75; BREAST: ZR-75", "value": "Slight"},
      {"measurement": "Minimal CoQ10 Concentration required for induction of early apoptosis", "setting": "ZR-75; ZR-75", "value": 200, "unit": "µM"},
      {"measurement": "Treatment Time required for induction of early apoptosis", "setting": "ZR-75; ZR-75", "value": 72, "unit": "h"},
      {"measurement": "Minimal CoQ10 Concentration required for induction of early apoptosis", "setting": "Melanoma (Skmel 28); Melanoma (Skmel 28)", "value": 20, "unit": "µM"},
      {"measurement": "Treatment Time required for induction of early apoptosis", "setting": "Melanoma (Skmel 28); Melanoma (Skmel 28)", "value": 24, "unit": "h"},
      {"measurement": "Indication of Early apoptosis (Bcl-2, annexin V, or caspase activation)", "setting": "Melanoma (Skmel 28); SKIN: Melanoma (Skmel 28)", "value": "Strong"},
      {"measurement": "Minimal CoQ10 Concentration required for induction of early apoptosis", "setting": "Melanoma (Skmel 2); Melanoma (Skmel 2)", "value": 25, "unit": "µM"},
      {"measurement": "Treatment Time required for induction of early apoptosis", "setting": "Melanoma (Skmel 2); Melanoma (Skmel 2)", "value": 24, "unit": "h"},
      {"measurement": "Indication of Early apoptosis (Bcl-2, annexin V, or caspase activation)", "setting": "Melanoma (Skmel 2); SKIN: Melanoma (Skmel 2)", "value": "Very Strong"},
      {"measurement": "Indication of Early apoptosis (Bcl-2, annexin V, or caspase activation)", "setting": "Melanocytes (Hema, LP)", "value": "None"},
      {"measurement": "Indication of Early apoptosis (Bcl-2, annexin V, or caspase activation)", "setting": "MDA MB 468; BREAST: MDA MB 468", "value": "Strong"},
      {"measurement": "Minimal CoQ10 Concentration required for induction of early apoptosis", "setting": "MDA MB 468; MDA MB 468", "value": 100, "unit": "µM"},
      {"measurement": "Treatment Time required for induction of early apoptosis", "setting": "MDA MB 468; MDA MB 468", "value": 48, "unit": "h"},
      {"measurement": "Indication of Early apoptosis (Bcl-2, annexin V, or caspase activation)", "setting": "SkBr-3; BREAST: SkBr-3", "value": "Very Strong"},
      {"measurement": "Minimal CoQ10 Concentration required for induction of early apoptosis", "setting": "SkBr-3; SkBr-3", "value": 50, "unit": "µM"},
      {"measurement": "Treatment Time required for induction of early apoptosis", "setting": "SkBr-3; SkBr-3", "value": 24, "unit": "h"},
      {"measurement": "Indication of Early apoptosis (Bcl-2, annexin V, or caspase activation)", "setting": "[2]", "value": "None"},
      {"measurement": "Minimal CoQ10 Concentration required for induction of early apoptosis", "setting": "HepG2; HepG2", "value": 50, "unit": "µM"},
      {"measurement": "Treatment Time required for induction of early apoptosis", "setting": "HepG2; HepG2", "value": 24, "unit": "h"},
      {"measurement": "Indication of Early apoptosis (Bcl-2, annexin V, or caspase activation)", "setting": "HepG2; LIVER: HepG2", "value": "Very Strong"},
      {"measurement": "Minimal CoQ10 Concentration required for induction of early apoptosis", "setting": "[3]; SCC", "value": 25, "unit": "µM"},
      {"measurement": "Treatment Time required for induction of early apoptosis", "setting": "[3]; SCC", "value": 24, "unit": "h"},
      {"measurement": "Indication of Early apoptosis (Bcl-2, annexin V, or caspase activation)", "setting": "[3]; SKIN: SCC", "value": "Very Strong"}
    ]}
  ]
}
